Test results: the kinase profiling compilation of Christmann-Franck et al. (2016)

Legend:
Test in all cases: KINOMEscan competition binding
Conditions in all cases: compound 10.0 µM
ALK (human) = ALK (human) (UniProt Q9UM73)
ULK2 (human) = ULK2 (human) (UniProt Q8IYT8)
[1] = test system: ABL1 (human), P00519 [F317I]
NUAK2 (human) = NUAK2 (human) (UniProt Q9H093)
PIK3CG (human) = PIK3CG (human) (UniProt P48736)
PLK1 (human) = PLK1 (human) (UniProt P53350)
MKNK2 (human) = MKNK2 (human) (UniProt Q9HBH9)
PRKD3 (human) = PRKD3 (human) (UniProt O94806)
RPS6KA6 KD2 (human) = RPS6KA6 KD2 (human) (UniProt Q9UK32)
FRK (human) = FRK (human) (UniProt P42685)
NUAK1 (human) = NUAK1 (human) (UniProt O60285)
MYLK (human) = MYLK (human) (UniProt Q15746)
TAOK3 (human) = TAOK3 (human) (UniProt Q9H2K8)
TAOK3 (human), sequence (Q9H2K8 whole entry, looked up): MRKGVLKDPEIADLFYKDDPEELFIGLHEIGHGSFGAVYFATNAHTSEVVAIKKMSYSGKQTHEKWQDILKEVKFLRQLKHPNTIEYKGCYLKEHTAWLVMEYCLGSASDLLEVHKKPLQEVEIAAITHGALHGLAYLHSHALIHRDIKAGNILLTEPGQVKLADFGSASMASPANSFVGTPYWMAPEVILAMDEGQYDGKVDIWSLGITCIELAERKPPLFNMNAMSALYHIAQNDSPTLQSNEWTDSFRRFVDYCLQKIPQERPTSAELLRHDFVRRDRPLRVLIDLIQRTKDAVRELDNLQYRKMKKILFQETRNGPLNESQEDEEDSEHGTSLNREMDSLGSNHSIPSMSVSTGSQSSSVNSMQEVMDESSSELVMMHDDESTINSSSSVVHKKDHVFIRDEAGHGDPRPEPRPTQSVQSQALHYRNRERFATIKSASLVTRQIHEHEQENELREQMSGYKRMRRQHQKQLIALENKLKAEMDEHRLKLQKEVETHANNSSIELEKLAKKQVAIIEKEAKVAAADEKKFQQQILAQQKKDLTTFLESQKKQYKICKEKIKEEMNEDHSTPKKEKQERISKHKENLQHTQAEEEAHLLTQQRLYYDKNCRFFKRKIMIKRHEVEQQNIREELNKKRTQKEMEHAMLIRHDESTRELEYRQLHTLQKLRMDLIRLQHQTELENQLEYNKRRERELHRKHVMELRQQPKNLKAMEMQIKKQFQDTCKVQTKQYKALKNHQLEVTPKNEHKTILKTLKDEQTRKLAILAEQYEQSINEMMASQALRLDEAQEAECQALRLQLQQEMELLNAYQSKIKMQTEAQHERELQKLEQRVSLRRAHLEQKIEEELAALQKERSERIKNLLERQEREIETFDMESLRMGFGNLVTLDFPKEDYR

CHEK2 (human) = CHEK2 (human) (UniProt O96017)
TAOK1 (human) = TAOK1 (human) (UniProt Q7L7X3)
PRKD2 (human) = PRKD2 (human) (UniProt Q9BZL6)
MAPK7 (human) = MAPK7 (human) (UniProt Q13164)
PIK3CD (human) = PIK3CD (human) (UniProt O00329)
ULK1 (human) = ULK1 (human) (UniProt O75385)
DCLK3 (human) = DCLK3 (human) (UniProt Q9C098)
DCLK3 (human), sequence (Q9C098 whole entry, looked up): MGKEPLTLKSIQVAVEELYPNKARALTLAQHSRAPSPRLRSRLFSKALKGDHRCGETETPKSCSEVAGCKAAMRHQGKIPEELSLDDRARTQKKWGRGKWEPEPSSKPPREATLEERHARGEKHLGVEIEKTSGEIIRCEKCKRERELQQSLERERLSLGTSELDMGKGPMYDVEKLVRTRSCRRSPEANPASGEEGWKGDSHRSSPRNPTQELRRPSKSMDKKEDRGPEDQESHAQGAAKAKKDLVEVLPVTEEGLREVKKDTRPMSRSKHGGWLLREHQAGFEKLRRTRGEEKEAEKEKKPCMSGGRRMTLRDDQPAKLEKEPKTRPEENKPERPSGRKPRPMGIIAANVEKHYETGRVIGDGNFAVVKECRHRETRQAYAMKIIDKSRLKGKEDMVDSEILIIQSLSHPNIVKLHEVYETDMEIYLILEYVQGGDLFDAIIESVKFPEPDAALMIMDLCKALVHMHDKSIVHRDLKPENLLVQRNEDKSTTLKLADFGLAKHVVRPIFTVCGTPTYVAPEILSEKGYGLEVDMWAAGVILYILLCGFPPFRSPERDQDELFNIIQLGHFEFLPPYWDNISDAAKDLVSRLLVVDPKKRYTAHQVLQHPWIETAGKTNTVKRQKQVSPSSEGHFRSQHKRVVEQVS

STK33 (human) = STK33 (human) (UniProt Q9BYT3)
TTK (human) = TTK (human) (UniProt P33981)
TTK (human), sequence (P33981 whole entry, looked up): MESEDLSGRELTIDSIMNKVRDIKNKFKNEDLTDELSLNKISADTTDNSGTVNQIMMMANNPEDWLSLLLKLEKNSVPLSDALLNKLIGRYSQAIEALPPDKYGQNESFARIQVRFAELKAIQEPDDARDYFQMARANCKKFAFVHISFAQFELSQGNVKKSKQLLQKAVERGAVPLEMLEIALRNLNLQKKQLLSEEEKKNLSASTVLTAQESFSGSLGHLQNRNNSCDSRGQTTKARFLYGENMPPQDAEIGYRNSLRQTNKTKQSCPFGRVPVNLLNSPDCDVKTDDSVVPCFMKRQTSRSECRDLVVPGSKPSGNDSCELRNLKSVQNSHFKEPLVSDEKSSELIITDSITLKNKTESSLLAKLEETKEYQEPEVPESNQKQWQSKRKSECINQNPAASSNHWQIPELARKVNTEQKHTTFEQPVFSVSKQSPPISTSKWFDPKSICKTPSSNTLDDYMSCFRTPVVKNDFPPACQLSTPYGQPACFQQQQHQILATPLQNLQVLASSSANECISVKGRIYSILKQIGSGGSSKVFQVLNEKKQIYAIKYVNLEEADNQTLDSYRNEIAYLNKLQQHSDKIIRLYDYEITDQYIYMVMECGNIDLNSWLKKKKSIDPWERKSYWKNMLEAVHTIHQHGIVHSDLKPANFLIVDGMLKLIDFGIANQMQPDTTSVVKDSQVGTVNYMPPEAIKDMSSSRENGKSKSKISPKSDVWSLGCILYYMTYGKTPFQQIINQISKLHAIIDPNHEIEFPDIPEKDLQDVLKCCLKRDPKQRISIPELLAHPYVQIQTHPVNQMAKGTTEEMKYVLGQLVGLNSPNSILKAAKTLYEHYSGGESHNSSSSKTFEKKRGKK

CAMK2G (human) = CAMK2G (human) (UniProt Q13555)
PLK4 (human) = PLK4 (human) (UniProt O00444)
PLK4 (human), sequence (O00444 whole entry, looked up): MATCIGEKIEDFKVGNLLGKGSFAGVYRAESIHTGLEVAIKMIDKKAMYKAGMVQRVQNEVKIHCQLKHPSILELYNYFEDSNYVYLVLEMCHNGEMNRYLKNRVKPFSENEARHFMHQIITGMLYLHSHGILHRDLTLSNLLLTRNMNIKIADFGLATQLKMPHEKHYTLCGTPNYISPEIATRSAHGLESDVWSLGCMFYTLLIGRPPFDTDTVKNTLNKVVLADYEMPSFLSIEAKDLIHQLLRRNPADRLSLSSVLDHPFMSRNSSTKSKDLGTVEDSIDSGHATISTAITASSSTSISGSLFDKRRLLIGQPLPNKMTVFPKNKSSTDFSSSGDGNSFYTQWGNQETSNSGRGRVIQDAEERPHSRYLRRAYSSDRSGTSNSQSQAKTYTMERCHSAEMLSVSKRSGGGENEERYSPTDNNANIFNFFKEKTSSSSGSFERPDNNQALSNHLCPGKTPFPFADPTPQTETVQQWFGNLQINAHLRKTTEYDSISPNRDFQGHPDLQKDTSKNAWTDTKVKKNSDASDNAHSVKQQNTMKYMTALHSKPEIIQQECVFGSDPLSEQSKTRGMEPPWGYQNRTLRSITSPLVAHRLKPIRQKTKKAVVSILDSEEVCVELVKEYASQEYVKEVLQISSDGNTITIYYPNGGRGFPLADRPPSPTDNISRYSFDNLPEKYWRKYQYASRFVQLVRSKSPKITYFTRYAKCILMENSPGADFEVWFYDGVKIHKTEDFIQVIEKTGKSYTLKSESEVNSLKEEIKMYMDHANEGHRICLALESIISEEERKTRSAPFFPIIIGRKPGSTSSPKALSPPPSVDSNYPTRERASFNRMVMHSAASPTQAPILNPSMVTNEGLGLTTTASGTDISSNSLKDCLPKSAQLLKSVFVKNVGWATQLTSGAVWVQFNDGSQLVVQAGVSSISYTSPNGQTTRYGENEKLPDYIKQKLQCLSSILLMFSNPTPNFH

CAMK2A (human) = CAMK2A (human) (UniProt Q9UQM7)
PTK2 (human) = PTK2 (human) (UniProt Q05397)
CAMK2D (human) = CAMK2D (human) (UniProt Q13557)
FGFR4 (human) = FGFR4 (human) (UniProt P22455)
PRKD1 (human) = PRKD1 (human) (UniProt Q15139)
FER (human) = FER (human) (UniProt P16591)
ROS1 (human) = ROS1 (human) (UniProt P08922)
[2] = test system: ABL1 (human), P00519 [F317L]
GAK (human) = GAK (human) (UniProt O14976)
PTK6 (human) = PTK6 (human) (UniProt Q13882)
TNK2 (human) = TNK2 (human) (UniProt Q07912)
CAMKK2 (human) = CAMKK2 (human) (UniProt Q96RR4)
DCLK1 (human) = DCLK1 (human) (UniProt O15075)
RPS6KA2 KD2 (human) = RPS6KA2 KD2 (human) (UniProt Q15349)
DCLK2 (human) = DCLK2 (human) (UniProt Q8N568)
RPS6KA1 KD2 (human) = RPS6KA1 KD2 (human) (UniProt Q15418)
PHKG2 (human) = PHKG2 (human) (UniProt P15735)
CSF1R (human) = CSF1R (human) (UniProt P07333)
CSF1R (human), sequence (P07333 whole entry, looked up): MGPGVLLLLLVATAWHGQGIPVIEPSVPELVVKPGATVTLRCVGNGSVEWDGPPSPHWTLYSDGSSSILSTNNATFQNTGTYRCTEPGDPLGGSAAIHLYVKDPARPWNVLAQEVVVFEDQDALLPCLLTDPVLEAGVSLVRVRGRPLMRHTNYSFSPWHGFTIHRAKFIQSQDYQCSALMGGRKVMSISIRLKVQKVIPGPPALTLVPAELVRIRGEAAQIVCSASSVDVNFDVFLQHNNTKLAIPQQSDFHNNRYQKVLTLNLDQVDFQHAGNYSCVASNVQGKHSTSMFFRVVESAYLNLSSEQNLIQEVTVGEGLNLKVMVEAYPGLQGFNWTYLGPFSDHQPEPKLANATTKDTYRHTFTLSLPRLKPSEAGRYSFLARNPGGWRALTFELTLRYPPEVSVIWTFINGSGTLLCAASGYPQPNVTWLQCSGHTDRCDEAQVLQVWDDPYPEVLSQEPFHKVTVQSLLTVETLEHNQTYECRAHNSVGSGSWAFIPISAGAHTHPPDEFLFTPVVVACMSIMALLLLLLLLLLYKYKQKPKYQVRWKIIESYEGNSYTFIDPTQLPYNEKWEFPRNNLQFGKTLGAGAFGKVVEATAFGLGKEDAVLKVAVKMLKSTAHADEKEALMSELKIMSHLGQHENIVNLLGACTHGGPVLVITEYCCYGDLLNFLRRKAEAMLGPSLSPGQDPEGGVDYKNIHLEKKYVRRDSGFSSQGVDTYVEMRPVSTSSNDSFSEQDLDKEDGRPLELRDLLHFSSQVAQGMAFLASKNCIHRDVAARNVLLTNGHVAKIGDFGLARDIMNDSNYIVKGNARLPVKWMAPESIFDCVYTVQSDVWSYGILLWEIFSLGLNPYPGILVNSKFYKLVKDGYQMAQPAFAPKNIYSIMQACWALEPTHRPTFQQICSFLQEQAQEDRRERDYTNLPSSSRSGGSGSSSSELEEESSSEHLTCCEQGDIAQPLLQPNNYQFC

TNK1 (human) = TNK1 (human) (UniProt Q13470)
SGK110 (human) = SGK110 (human) (UniProt P0C264)
SGK110 (human), sequence (P0C264 whole entry, looked up): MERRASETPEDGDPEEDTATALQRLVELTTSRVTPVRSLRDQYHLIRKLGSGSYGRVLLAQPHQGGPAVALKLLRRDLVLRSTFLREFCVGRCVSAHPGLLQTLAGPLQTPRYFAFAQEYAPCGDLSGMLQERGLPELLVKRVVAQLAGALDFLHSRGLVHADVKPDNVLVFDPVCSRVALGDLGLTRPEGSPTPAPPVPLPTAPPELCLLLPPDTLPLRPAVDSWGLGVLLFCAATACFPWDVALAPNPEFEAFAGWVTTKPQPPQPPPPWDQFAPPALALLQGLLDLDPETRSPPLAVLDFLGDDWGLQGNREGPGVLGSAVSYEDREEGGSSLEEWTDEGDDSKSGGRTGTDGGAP

For COc1cc(N2CCN(C)CC2)ccc1Nc1ncc2c(n1)N(C)c1ccccc1C(=O)N2C, the kinase still bound, per cent of control (ALK (human)) was 16%, the kinase still bound, per cent of control (ULK2 (human)) was 0.5% and the kinase still bound, per cent of control [1] was 5%. The kinase still bound, per cent of control (NUAK2 (human)) was 14%, the kinase still bound, per cent of control (PIK3CG (human)) was 31% and the kinase still bound, per cent of control (PLK1 (human)) was 9.8%. It also gave a kinase still bound, per cent of control (MKNK2 (human)) of 0%, a kinase still bound, per cent of control (PRKD3 (human)) of 5.4% and a kinase still bound, per cent of control (RPS6KA6 KD2 (human)) of 4.9%. It also gave a kinase still bound, per cent of control (FRK (human)) of 2.6%, a kinase still bound, per cent of control (NUAK1 (human)) of 7.6% and a kinase still bound, per cent of control (MYLK (human)) of 13%. The kinase still bound, per cent of control (TAOK3 (human)) was 2%, the kinase still bound, per cent of control (CHEK2 (human)) was 30% and the kinase still bound, per cent of control (TAOK1 (human)) was 4.8%. The kinase still bound, per cent of control (PRKD2 (human)) was 0.55%, the kinase still bound, per cent of control (MAPK7 (human)) was 0% and the kinase still bound, per cent of control (PIK3CD (human)) was 33%. The kinase still bound, per cent of control (ULK1 (human)) was 2.9%, the kinase still bound, per cent of control (DCLK3 (human)) was 16% and the kinase still bound, per cent of control (STK33 (human)) was 8.8%. It also gave a kinase still bound, per cent of control (TTK (human)) of 26%, a kinase still bound, per cent of control (CAMK2G (human)) of 31% and a kinase still bound, per cent of control (PLK4 (human)) of 6.8%. It also gave a kinase still bound, per cent of control (CAMK2A (human)) of 32%, a kinase still bound, per cent of control (PTK2 (human)) of 16% and a kinase still bound, per cent of control (CAMK2D (human)) of 23%. For the same compound, the kinase still bound, per cent of control (FGFR4 (human)) was 5.6%, the kinase still bound, per cent of control (PRKD1 (human)) was 3.8% and the kinase still bound, per cent of control (FER (human)) was 32%. The kinase still bound, per cent of control (ROS1 (human)) was 7.6%, the kinase still bound, per cent of control [2] was 17% and the kinase still bound, per cent of control (GAK (human)) was 9.8%. It also gave a kinase still bound, per cent of control (PTK6 (human)) of 7.6%, a kinase still bound, per cent of control (TNK2 (human)) of 3.2% and a kinase still bound, per cent of control (CAMKK2 (human)) of 15%. It also gave a kinase still bound, per cent of control (DCLK1 (human)) of 0.65%, a kinase still bound, per cent of control (RPS6KA2 KD2 (human)) of 15% and a kinase still bound, per cent of control (DCLK2 (human)) of 0.45%. The kinase still bound, per cent of control (RPS6KA1 KD2 (human)) was 18%, the kinase still bound, per cent of control (PHKG2 (human)) was 29% and the kinase still bound, per cent of control (CSF1R (human)) was 16%. For the same compound, the kinase still bound, per cent of control (TNK1 (human)) was 0.4% and the kinase still bound, per cent of control (SGK110 (human)) was 30%.
